Source: patent US11903388B2 (priority 2018, dated 2024)

Test system: Aspergillus parasiticus B62
Assay type: cell-based

Compound	growth
Cc1cc(OC(=O)c2c(C)cc(O)cc2O)cc(O)c1C(=O)O [Lecanoric acid]	inhibitory effects
COC(=O)c1c(C)cc(O)cc1O [methyl-orsellinate]	inhibitory effects
